Columns and labels:
[1] = tested on: platelet aggregation induced by ADP in rat platelet-rich plasma (PRP); assay: Platelet aggregation inhibitory activity during oral administration in a rat (ex vivo, ADP-induced); conditions: male Wistar rats, 1 mg/10 ml/kg orally, blood collected 4 hours after administration, ADP final concentration 3 μM, vs. control PRP (solvent only), read-out: Inhibition Rates (%)
Procedure: 1 mg/10 ml/kg of the test compound was orally administered by gavage to male rats (Slc: Wistar, age 8 to 9 weeks) that had been fasted overnight. 4 hours after administration, a syringe containing 1/10 volume of a 3.13% sodium citrate solution was used to collect blood from the abdominal aorta of a rat under anesthesia. From the collected blood, platelet-rich plasma (PRP) and platelet-poor plasma (PPP) were prepared according to the method described in the method for measuring human platelet aggregation inhibitory activity. PRP was left at rest at 16° C. for 30 minutes, and subsequently used for measurement.
200 μL of the separately collected PRP was dispensed into a cuvette for the aggregation test, followed by incubation at 37° C. for 2 minutes, and subsequently 2 μL of 0.3 mM ADP was added (final concentration 3 μM) to induce platelet aggregation.
Platelet aggregation was measured for 8 minutes using an aggregometer (MCM HEMA TRACER 313M; MC MEDICAL, INC.). With the light transmittance rate of PPP being set as an aggregation value of 100%, the maximum aggregation rate of PRP was determined, and compared with the maximum aggregation rate of control PRP (rat administered only with a solvent) to calculate inhibition rates.

[2] = tested on: platelet aggregation induced by ADP in human platelet-rich plasma (PRP); assay: Human platelet aggregation inhibitory activity (ADP-induced, platelet-rich plasma); format: cell-based; conditions: 8 min, ADP final concentration 20 μM, maximum aggregation rate, measured for 8 minutes
Procedure: A blood collecting syringe containing 1/10 volume of a 3.8% sodium citrate solution was used to collect blood from radial vein of a healthy person. The collected blood was centrifuged at 180×g at room temperature for 10 minutes to separate the supernatant (platelet-rich plasma; PRP). After PRP was separately collected, the remaining blood was centrifuged at 1,600×g for 10 minutes to separately collect platelet-poor plasma (PPP) of the upper layer. PRP was left at rest at 16° C. for 30 minutes, and subsequently used for measurement.
200 μL of the separately collected PRP was dispensed into a cuvette for the aggregation test, and 1 μL of dimethylsulfoxide (control) or a test compound solution diluted with dimethylsulfoxide was added, followed by incubation at 37° C. for 2 minutes. Subsequently, 2 μL of 2 mM ADP was added (final concentration 20 μM) to induce platelet aggregation.
Platelet aggregation was measured for 8 minutes using an aggregometer (MCM HEMA TRACER 313M; MC MEDICAL, INC.). With the light transmittance rate of PPP being set as an aggregation value of 100%, the maximum aggregation rate was determined for each concentration of the test compounds to calculate IC50 values.

SMILES | inhibition at 1 mg/kg [1] [%] | IC50 [2] [µM]
C[C@@H]1Oc2ncc(Cl)cc2N(C2CCN(C(=O)c3ccc(-c4ccccc4OCC(C)(C)C(=O)O)cc3F)CC2)C1=O [Example 2, 3-{[4′-({4-[(3S)-7-Chloro-3-methyl-2-oxo-2,3-dihydro-1H-pyrido[2,3-b][1,4]oxazin-1-yl]piperidin-1-yl}carbonyl)-3′-fluorobiphenyl-2-yl]oxy}-2,2-dimethylpropanoic acid] | 66 | 3.5
C[C@H](CC(=O)O)Oc1ccccc1-c1ccc(C(=O)N2CCC(N3C(=O)C(C)(C)Cc4ncc(Cl)cc43)CC2)c(F)c1 [Example 5, (3R)-3-[(4′-{[4-(7-Chloro-3,3-dimethyl-2-oxo-3,4-dihydro-1,5-naphthyridin-1(2H)-yl)piperidin-1-yl]carbonyl}-3′-fluorobiphenyl-2-yl)oxy]butanoic acid] | 70 | 3.4
C[C@H](CC(=O)O)Oc1ccccc1-c1ccc(C(=O)N2CCC(N3C(=O)C(C)(C)Oc4ncc(Cl)cc43)CC2)c(F)c1 [Example 6, (3R)-3-[(4′-{[4-(7-Chloro-3,3-dimethyl-2-oxo-2,3-dihydro-1H-pyrido[2,3-b][1,4]oxazin-1-yl)piperidin-1-yl]carbonyl}-3′-fluorobiphenyl-2-yl)oxy]butanoic acid] | 54 | 2.4
C[C@@H](Oc1ccccc1-c1ccc(C(=O)N2CCC(N3C(=O)C(C)(C)Oc4ncc(Cl)cc43)CC2)c(F)c1)[C@@H](C)C(=O)O [Example 9, (2R,3R)-3-[(4′-{[4-(7-Chloro-3,3-dimethyl-2-oxo-2,3-dihydro-1H-pyrido[2,3-b][1,4]oxazin-1-yl)piperidin-1-yl]carbonyl}-3′-fluorobiphenyl-2-yl)oxy]-2-methylbutanoic acid] | 52 | 2.1
CC[C@@H](COc1ccccc1-c1ccc(C(=O)N2CCC(N3C(=O)C(C)(C)Oc4ncc(Cl)cc43)CC2)c(F)c1)C(=O)O [Example 10, (2S)-2-{[(4′-{[4-(7-Chloro-3,3-dimethyl-2-oxo-2,3-dihydro-1H-pyrido[2,3-b][1,4]oxazin-1-yl)piperidin-1-yl]carbonyl}-3′-fluorobiphenyl-2-yl)oxy]methyl}butanoic acid] | 47 | 8.4
C[C@@H](COc1ccccc1-c1ccc(C(=O)N2CCC(N3C(=O)C(C)(C)Cc4ncc(Cl)cc43)CC2)c(F)c1)C(=O)O [Example 11, (2S)-3-[(4′-{[4-(7-Chloro-3,3-dimethyl-2-oxo-3,4-dihydro-1,5-naphthyridin-1(2H)-yl)piperidin-1-yl]carbonyl}-3′-fluorobiphenyl-2-yl)oxy]-2-methylpropanoic acid] | 45 | 6.1
C[C@H](CC(=O)O)Oc1ccc(F)cc1-c1ccc(C(=O)N2CCC(N3C(=O)C(C)(C)Oc4ncc(Cl)cc43)CC2)c(F)c1 [Example 13, (3R)-3-[(4′-{[4-(7-Chloro-3,3-dimethyl-2-oxo-2,3-dihydro-1H-pyrido[2,3-b][1,4]oxazin-1-yl)piperidin-1-yl]carbonyl}-3′,5-difluorobiphenyl-2-yl)oxy]butanoic acid] | 63 | 4.1
C[C@H](CC(=O)O)Oc1ccc(F)cc1-c1ccc(C(=O)N2CCC(N3C(=O)C(C)(C)Cc4ncc(Cl)cc43)CC2)c(F)c1 [Example 14, (3R)-3-[(4′-{[4-(7-Chloro-3,3-dimethyl-2-oxo-3,4-dihydro-1,5-naphthyridin-1(2H)-yl)piperidin-1-yl]carbonyl}-3′,5-difluorobiphenyl-2-yl)oxy]butanoic acid] | 79 | 3.4
Cc1cc(-c2ccccc2O[C@H](C)CC(=O)O)ccc1C(=O)N1CCC(N2C(=O)C(C)(C)Oc3ncc(Cl)cc32)CC1 [Example 16, (3R)-3-[(4′-{[4-(7-Chloro-3,3-dimethyl-2-oxo-2,3-dihydro-1H-pyrido[2,3-b][1,4]oxazin-1-yl)piperidin-1-yl]carbonyl}-3′-methylbiphenyl-2-yl)oxy]butanoic acid] | 40 | 6.5
Cc1cc(-c2cc(F)ccc2O[C@H](C)CC(=O)O)ccc1C(=O)N1CCC(N2C(=O)C(C)(C)Oc3ncc(Cl)cc32)CC1 [Example 17, (3R)-3-[(4′-{[4-(7-Chloro-3,3-dimethyl-2-oxo-2,3-dihydro-1H-pyrido[2,3-b][1,4]oxazin-1-yl)piperidin-1-yl]carbonyl}-5-fluoro-3′-methylbiphenyl-2-yl)oxy]butanoic acid] | 52 | 9.8
C[C@H](CC(=O)O)Oc1ccccc1-c1ccc(C(=O)N2CCC(N3C(=O)C(C)(C)Oc4ncc(Cl)cc43)CC2)c(Cl)c1 [Example 19, (3R)-3-[(3′-Chloro-4′-{[4-(7-chloro-3,3-dimethyl-2-oxo-2,3-dihydro-1H-pyrido[2,3-b][1,4]oxazin-1-yl)piperidin-1-yl]carbonyl}biphenyl-2-yl)oxy]butanoic acid] | 64 | 7.5
C[C@@H]1Oc2ncc(Cl)cc2N(C2CCN(C(=O)c3ccc(-c4ccccc4OC[C@H](C)C(=O)O)cc3F)CC2)C1=O [Example 24, (2S)-3-{[4′-({4-[(3S)-7-Chloro-3-methyl-2-oxo-2,3-dihydro-1H-pyrido[2,3-b][1,4]oxazin-1-yl]piperidin-1-yl}carbonyl)-3′-fluorobiphenyl-2-yl]oxy}-2-methylpropanoic acid] | 44 | 3.1
C[C@@H](COc1ccccc1-c1ccc(C(=O)N2CCC(N3C(=O)C(C)(C)Oc4ncc(Cl)cc43)CC2)c(F)c1)C(=O)O [Example 25, (2S)-3-[(4′-{[4-(7-Chloro-3,3-dimethyl-2-oxo-2,3-dihydro-1H-pyrido[2,3-b][1,4]oxazin-1-yl)piperidin-1-yl]carbonyl}-3′-fluorobiphenyl-2-yl)oxy]-2-methylpropanoic acid] | 46 | 5.1
C[C@@H]1Oc2ncc(Cl)cc2N(C2CCN(C(=O)c3ccc(-c4cc(F)ccc4OC[C@H](C)C(=O)O)cc3F)CC2)C1=O [Example 26, (2S)-3-{[4′-({4-[(3S)-7-Chloro-3-methyl-2-oxo-2,3-dihydro-1H-pyrido[2,3-b][1,4]oxazin-1-yl]piperidin-1-yl}carbonyl)-3′,5-difluorobiphenyl-2-yl]oxy}-2-methylpropanoic acid] | 55 | 7.3
C[C@@H](COc1ccc(F)cc1-c1ccc(C(=O)N2CCC(N3C(=O)C(C)(C)Oc4ncc(Cl)cc43)CC2)c(F)c1)C(=O)O [Example 27, (2S)-3-[(4′-{[4-(7-Chloro-3,3-dimethyl-2-oxo-2,3-dihydro-1H-pyrido[2,3-b][1,4]oxazin-1-yl)piperidin-1-yl]carbonyl}-3′,5-difluorobiphenyl-2-yl)oxy]-2-methylpropanoic acid] | 36 | 6.5
C[C@H](CC(=O)O)Oc1ccccc1-c1ccc(C(=O)N2CCC(N3C(=O)[C@H](C)Oc4ncc(Cl)cc43)CC2)c(F)c1 [Example 28, (3R)-3-{[4′-({4-[(3S)-7-Chloro-3-methyl-2-oxo-2,3-dihydro-1H-pyrido[2,3-b][1,4]oxazin-1-yl]piperidin-1-yl}carbonyl)-3′-fluorobiphenyl-2-yl]oxy}butanoic acid] | 74 | 1.8
C[C@H](CC(=O)O)Oc1ccc(F)cc1-c1ccc(C(=O)N2CCC(N3C(=O)[C@H](C)Oc4ncc(Cl)cc43)CC2)c(F)c1 [Example 29, (3R)-3-{[4′-({4-[(3S)-7-Chloro-3-methyl-2-oxo-2,3-dihydro-1H-pyrido[2,3-b][1,4]oxazin-1-yl]piperidin-1-yl}carbonyl)-3′,5-difluorobiphenyl-2-yl]oxy}butanoic acid] | 75 | 4.3
C[C@H](CC(=O)O)Oc1ccccc1-c1cc(F)c(C(=O)N2CCC(N3C(=O)C(C)(C)Oc4ncc(Cl)cc43)CC2)cc1F [Example 34, (3R)-3-[(4′-{[4-(7-Chloro-3,3-dimethyl-2-oxo-2,3-dihydro-1H-pyrido[2,3-b][1,4]oxazin-1-yl)piperidin-1-yl]carbonyl}-2′,5′-difluorobiphenyl-2-yl)oxy]butanoic acid] | 55 | 2.3
Cc1cc(-c2ccccc2O[C@H](C)CC(=O)O)c(C)cc1C(=O)N1CCC(N2C(=O)C(C)(C)Oc3ncc(Cl)cc32)CC1 [Example 54, (3R)-3-[(4′-{[4-(7-Chloro-3,3-dimethyl-2-oxo-2,3-dihydro-1H-pyrido[2,3-b][1,4]oxazin-1-yl)piperidin-1-yl]carbonyl}-2′,5′-dimethylbiphenyl-2-yl)oxy]butanoic acid] | – | 11.4
